The values that follow come from US9765054B2, “Histone deacetylase inhibitors and compositions and methods of use thereof” (CHDI Foundation, Inc., priority 2011, dated 2017).

pIC50: −log10 of the molar value.

In test [1] the target is human catalytic domain HDAC4 protein (Homo sapiens, UniProt P56524, A743G/DEL730-739/DEL742-742). Put plainly: Inhibition of HDAC4 catalytic domain enzymatic activity, Boc-Lys(Tfa)-AMC substrate, fluorescence.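 Further: trypsin releases AMC from deacetylated substrate, fluorescence tracks enzyme activity, 15 min reaction at 37 °C, 100% activity defined by DMSO-only control.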 Conditions: Class IIa selective substrate Boc-Lys(Tfa)-AMC, read-out: Biochemical HDAC-4 IC50.
Test [2] has as its system cellular histone deacetylase enzymatic activity in Jurkat E6-1 cells. The experiment in a line: Inhibition of cellular HDAC activity, Boc-Lys(Tfa)-AMC substrate, in Jurkat E6-1 cells. Format: cell-based. Conditions: Homo sapiens, Class IIa selective substrate Boc-Lys(Tfa)-AMC. The source says: The potency of Class IIa Histone Deacetylase (HDAC) inhibitors is quantified by measuring the cellular histone deacetylase enzymatic activity using the Class IIa selective substrate, Boc-Lys(Tfa)-AMC. After penetration in Jurkat E6-1 cells, the substrate is deacetylated to Boc-Lys-AMC. After cell lysis and cleavage by trypsin, the fluorophore AMC is released from the deacetylated substrate only. The fluoresence of the sample is directly related to the histone deacetylase activity in the sample.
Jurkat E6.1 Cell Culture and Plating.
Jurkat E6.1 cells are cultured according to standard cell culture protocols in Jurkat E6.1 Growth Media (RPMI without phenol red, 10% FBS, 10 mM HEPES, and 1 mM Sodium Pyruvate). Jurkat E6.1 cells are counted using a Coulter Counter and resuspended in Jurkat E6.1 growth media at a concentration of 75,000 cells/35 μl. 35 μl or 75,000 cells is seeded into Greiner microtitre assay plates. The plates are then incubated at 37° C. and 5% CO2 while other assay components are being prepared.
Serially Dilute HDAC Inhibitor Compounds.
Serial dilutions of the HDAC inhibitors and control reference compound (1-(5-(3-((4-(1,3,4-oxadiazol-2-yl)phenoxy)methyl)-1,2,4-oxadiazol-5-yl)thiophen-2-yl)-2,2,2-trifluoroethanone) are made by first resuspending the lyophilized compound to a final concentration of 10 mM in 100% DMSO. Stocks of 70 μl aliquots of the 10 mM compound in DMSO are prepared and stored at −20° C. From one stock aliquot of each compound to be tested and the reference compound, a 16-point serial dilution is prepared according to Table 7 using a 125 μl 16-channel Matrix multi-channel pipette.
2 μl (200×) of each diluted solution and each control (full activity: 100% DMSO alone or full inhibition 1 mM) is stamped into V-bottom polypropylene 384-well compound plates using either the Bravo, Janus, or […] 16-channel Matrix multi-channel pipette. Each well with the 200× compound solution is diluted 1:20 by the addition of 38 μl Jurkat assay buffer+DMSO (9.5% DMSO, RPMI without phenol red, 0.09% FBS, 9 mM Hepes, and 0.9 mM Sodium Pyruvate equilibrated to room temperature)
Prepare 5× (500 μM) Boc-Lys(Tfa)-AMC Substrate.
5× (500 μM) substrate is prepared just prior to the addition to the assay. The 5× substrate is prepared by diluting a 100 mM Boc-Lys(Tfa)-AMC in DMSO solution 1:200 by adding it drop-wise to Jurkat assay medium (RPMI without phenol red, 0.1% FBS, 10 mM Hepes, and 1 mM Sodium Pyruvate equilibrated to 37° C.) while vortexing at slow speed to prevent precipitation.
10 ml of 3× lysis buffer is prepared with 8.8 ml of 3× stock lysis buffer (50 mM Tris-HCl, pH 8.0, 137 mM NaCl, 2.7 mM KCl, 1 mM MgCl2, 1% Nonidet P40 Substitute equilibrated to room temperature) and 1.2 ml of 3 mg/ml Trypsin equilibrated to room temperature.
5 μl of each solution of 1:20 diluted compound from above is transferred to the Greiner microtitre assay plates with 75,000 cells/well using the Bravo. Cells are then incubated for 2 hours at 37° C. and 5% CO2. The assay is then started by adding 10 μl of 5× (500 μM) substrate to the assay plate using either the Bravo or 16-channel Matrix multi-channel pipette. The cells are then incubated for 3 hours at 37° C. and 5% CO2. Next, 25 μl of 3× lysis buffer is added to each well using either the 125 μl 16 channel pipette or the Bravo. The assay plate is then incubated overnight (15-16 hours) at 37° C. and 5% CO2. The following day, the plates are shaken on an orbital shaker for 1 minute at 900 rpm. Finally the top read fluorescence (Excitation: 355 nm, Emission: 460 nm) is measured using PerkinElmer EnVision.

The term pIC50 denotes −log10 of the IC50, conventionally taken in molar units.

In the case of `O=C(NO)[C@@H]1[C@H](c2ccccc2)[C@H]1c1ccc(NS(=O)(=O)C2CC2)cc1` (racemic) [Compound 22, (1R*,2R*,3R*)-2-(4-(cyclopropanesulfonamido)phenyl)-N-hydroxy-3-phenylcyclopropanecarboxamide], the pIC50 in test [1] is 7.30; in test [2], 5.88.

On to `O=C(NO)[C@@H]1[C@H](c2ccccc2)[C@H]1c1ccc(-n2ccnc2)cc1` (racemic) [Compound 42, (1R*,2R*,3R*)-2-(4-(1H-imidazol-1-yl)phenyl)-N-hydroxy-3-phenylcyclopropanecarboxamide], for which the pIC50 in test [1] is 6.70; in test [2] it was 5.79.

Consider `O=C(NO)[C@@H]1[C@H](c2ccccc2)[C@H]1c1ccc(-c2cnc(-c3ccccc3)o2)cc1` (racemic) [Compound 48, (1R*,2R*,3R*)—N-Hydroxy-2-phenyl-3-(4-(2-phenyloxazol-5-yl)phenyl)cyclopropanecarboxamide], for which the values for the pIC50 in test [1] and in test [2] were 6.55 and 5.90, respectively.

`O=C(NO)[C@@H]1[C@H](c2ccccc2)[C@H]1c1ccc(-c2ncc(C3CC3)cn2)cc1` (racemic) [Compound 50c, (1R*,2R*,3R*)-2-(4-(5-Cyclopropylpyrimidin-2-yl)phenyl)-N-hydroxy-3-phenylcyclopropanecarboxamide]: the results for the pIC50 in test [1] and in test [2] were 6.66 and 6.09, respectively.

As for `O=C(NO)[C@@H]1[C@H](c2ccccc2)[C@H]1c1ccc(-c2ccnnc2)cc1` (racemic) [Compound 50g, (1R*,2R*,3R*)—N-Hydroxy-2-phenyl-3-(4-(pyridazin-4-yl)phenyl)cyclopropanecarboxamide], the pIC50 in test [1] is 6.96; in test [2], 6.18.

With `O=C(NO)[C@@H]1[C@H](c2ccccc2)[C@H]1c1ccc(-c2ccc3c(c2)CN(C2CC2)C3)cc1` (racemic) [Compound 52, (1R*,2R*,3R*)-2-(4-(2-cyclopropylisoindolin-5-yl)phenyl)-N-hydroxy-3-phenylcyclopropanecarboxamide], the pIC50 in test [1] was 6.32; in test [2] it was 5.75.

For the compound `O=C(NO)[C@@H]1[C@H](c2ccccc2)[C@H]1c1ccc(-c2ccc(-n3c4ccccc4c4ccccc43)cc2)cc1` (racemic) [Compound 54b, (1R*,2R*,3R*)-2-(4′-(9H-carbazol-9-yl)-[1,1′-biphenyl]-4-yl)-N-hydroxy-3-phenylcyclopropanecarboxamide], the results for the pIC50 in test [1] and in test [2] were 5.25 and 4.30, respectively.

`CC(C)N1CCN(c2ccc([C@H]3[C@H](C(=O)NO)[C@@H]3c3ccccc3)cc2)CC1` (racemic) [Compound 56a, (1R*,2R*,3R*)—N-Hydroxy-2-(4-(4-isopropylpiperazin-1-yl)phenyl)-3-phenylcyclopropanecarboxamide]: the pIC50 in test [1] is 7.05; in test [2] it was 6.12.

As to `CC(C)N1CCN(c2cccc([C@H]3[C@H](C(=O)NO)[C@@H]3c3ccccc3)c2)CC1` (racemic) [Compound 56b, (1R*,2R*,3R*)—N-Hydroxy-2-(3-(4-isopropylpiperazin-1-yl)phenyl)-3-phenylcyclopropanecarboxamide], the pIC50 was 5.84 in test [1] and 5.29 in test [2].

On to `O=C(NO)[C@@H]1[C@H](c2ccccc2)[C@H]1c1cccc(N2CCC(N3CCCC3)CC2)c1` (racemic) [Compound 56g, (1R*,2R*,3R*)—N-Hydroxy-2-phenyl-3-(3-(4-(pyrrolidin-1-yl)piperidin-1-yl)phenyl)cyclopropanecarboxamide], for which the pIC50 in test [1] was 6.41; in test [2], 5.66.

In the case of `CN1CCN(c2ccc([C@H]3[C@H](C(=O)NO)[C@@H]3c3ccccc3)cc2)CC1` (racemic) [Compound 56i, (1R*,2R*,3R*)—N-Hydroxy-2-(4-(4-methylpiperazin-1-yl)phenyl)-3-phenylcyclopropanecarboxamide], the pIC50 in test [1] was 6.85; in test [2], 5.88.

Regarding `C[C@@]1(C(=O)NO)[C@H](c2ccccc2)[C@H]1c1ccc(-c2ncc(F)cn2)cc1` (racemic) [Compound 63, (1R*,2S*,3S*)-2-(4-(5-Fluoropyrimidin-2-yl)phenyl)-N-hydroxy-1-methyl-3-phenylcyclopropanecarboxamide], the pIC50 is 6.57 in test [1] and 5.81 in test [2].

For the compound `O=C(NO)[C@@H]1[C@H](c2ccccc2)[C@H]1c1ccc(-n2cccn2)cc1` (racemic) [Compound 65, (1R*,2R*,3R*)-2-(4-(1H-pyrazol-1-yl)phenyl)-N-hydroxy-3-phenylcyclopropanecarboxamide], the figures for the pIC50 in test [1] and in test [2] were 7.05 and 6.01, respectively.

For the compound `O=C(NO)[C@@H]1[C@H](c2ccccc2)[C@H]1c1cccc(N2CCN3CCCC3C2)c1` (relative stereo) [Compound 56f, (1R*,2R*,3R*)-2-(3-(Hexahydropyrrolo[1,2-a]pyrazin-2(1H)-yl)phenyl)-N-hydroxy-3-phenylcyclopropanecarboxamide], the negative logarithm of the IC50 (pIC50) in test [1] is 6.20; in test [2] it was 5.73.

`O=C(NO)[C@H]1[C@H](c2cc(Cl)c3c(c2)OCCO3)[C@H]1c1ccccc1F` [Compound 25f, (1S,2R,3R)-2-(8-Chloro-2,3-dihydrobenzo[b][1,4]dioxin-6-yl)-3-(2-fluorophenyl)-N-hydroxycyclopropanecarboxamide]: the pIC50 in test [1] is 7.52; in test [2], 6.62.

With `O=C(NO)[C@H]1[C@H](c2ccnc(C3CC3)c2)[C@H]1c1ccccc1F` [Compound 28c, (1S,2R,3R)-2-(2-Cyclopropylpyridin-4-yl)-3-(2-fluorophenyl)-N-hydroxycyclopropanecarboxamide], the pIC50 is 7.40 in test [1] and 6.28 in test [2].

For the compound `O=C(NO)[C@@H]1[C@H](c2ccc(F)cc2)[C@H]1c1ccnc(C2CC2)c1` [Compound 28d, (1R,2R,3R)-2-(2-Cyclopropylpyridin-4-yl)-3-(4-fluorophenyl)-N-hydroxycyclopropanecarboxamide], the pIC50 was 6.92 in test [1] and 6.10 in test [2].

Take `O=C(NO)[C@@H]1[C@H](c2ccccc2)[C@H]1c1ccc2c(c1)OC(F)(F)O2` [Compound 28e, (1R,2R,3R)-2-(2,2-Difluorobenzo[d][1,3]dioxol-5-yl)-N-hydroxy-3-phenylcyclopropanecarboxamide]: the pIC50 is 6.92 in test [1] and 5.69 in test [2].

`CC(C)c1nc2ccc([C@H]3[C@H](C(=O)NO)[C@@H]3c3ccccc3)cc2o1` [Compound 39, (1R,2R,3R)—N-hydroxy-2-(2-isopropylbenzo[d]oxazol-6-yl)-3-phenylcyclopropanecarboxamide]: the pIC50 in test [1] is 7.70; in test [2] it was 6.66.

`O=C(NO)[C@@H]1[C@H](c2ccccc2)[C@H]1c1ccc(-c2ncc(C(F)(F)F)cn2)cc1` [Compound 50e, (1R,2R,3R)-2-(4-(5-Trifluoromethylpyrimidin-2-yl)phenyl)-N-hydroxy-3-phenylcyclopropanecarboxamide]: the figures for the pIC50 in test [1] and in test [2] were 6.74 and 6.16, respectively.

For the compound `O=C(NO)[C@@H]1[C@H](c2ccccc2)[C@H]1c1ccc(-c2cccc(OCc3ccccc3)c2)cc1` [Compound 54a, (1R,2R,3R)-2-(3′-(Benzyloxy)-[1,1′-biphenyl]-4-yl)-N-hydroxy-3-phenylcyclopropanecarboxamide], the results for the pIC50 in test [1] and in test [2] were 6.00 and 5.05, respectively.
